In publication PMC10806767 (JACS Au, 2023):
Ends that are not written are not given here.

Experiments:
breast cancer cells = experiment: Wound healing assay; assay type: cell-based; details: 36 h, compared with the control group
[1] = tested on: 4T1-luc mouse mammary tumor; experiment: In vivo antitumor efficacy and biosafety study, 4T1-luc tumor-bearing mice; details: 8 mg/kg, peritumoral injection every other day, 19 days
[2] = biological target: T1, recombinant protein His-SND1 (16-339) (UniProt Q7KZF4 16-339); experiment: fluorescence polarisation
T1 sequence (looked up): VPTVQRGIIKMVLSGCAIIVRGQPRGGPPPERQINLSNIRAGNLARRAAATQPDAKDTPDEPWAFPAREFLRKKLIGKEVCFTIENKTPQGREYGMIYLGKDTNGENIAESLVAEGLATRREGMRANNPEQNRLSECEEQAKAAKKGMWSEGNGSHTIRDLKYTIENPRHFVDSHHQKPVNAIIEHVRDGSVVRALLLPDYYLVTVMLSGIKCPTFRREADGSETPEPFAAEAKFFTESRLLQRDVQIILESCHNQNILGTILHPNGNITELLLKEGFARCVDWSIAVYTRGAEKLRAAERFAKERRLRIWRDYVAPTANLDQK

Row | Molecule | tumor migration suppression (breast cancer cells) | tumor growth suppression (in words) [1] | Kd [2]
1 | C[S+]1CC[C@@H](C(=O)N[C@@H](CCC(=O)O)C(=O)N[C@@H](Cc2c[nH]c3ccccc23)C(=O)O)NC(=O)[C@H](CCCNC(=N)N)NC(=O)[C@H](Cc2c[nH]cn2)NC(=O)[C@H](CCC(=O)O)NC(=O)[C@@H](NC(=O)[C@H](CCCNC(=N)N)NC(=O)[C@H](CCCNC(=N)N)NC(=O)OCC2c3ccccc3-c3ccccc32)CC[S+](C)Cc2cccc(c2)C1 (stereo partly drawn) [Wpc] | little effect | failed to suppress the tumor growth | 
2 | DWNEPAEEWGNWVDE (peptide, UniProt Q86UE4 393-407, looked up, also: FITC label (position not given here)) [MS2D-E] |  |  | ~34 nM
